# Assay results as given in US20090082322A1, “Gender Differences in Experimental Aortic Aneurysm Formation” (THE REGENTS OF THE UNIVERSITY OF MICHIGAN, priority 2004, published 2009).
# Test: Serum estradiol levels after pellet implantation
# Type: in vivo
# Settings: at 2 to 3 weeks, 21-day slow-release 0.1-mg pellet s.c.; control rats 15.0±2.2
# Excerpt: In other experiments, male rats were randomized to implantation of an estrogen pellet or sham implantation (n=13, each). The former involved the subcutaneous implantation of a 21-day slow-release 0.1-mg 17-β-estradiol pellet (Innovative Research of America, Sarasota, Fla.) in the posterior neck. Sham rats underwent the same implantation procedure without insertion of any pellet. This particular estradiol dose results in serum estradiol levels at 2 to 3 weeks of 44.7±6.1 pg/mL compared with 15.0±2.2 pg/mL in control rats (P<0.05). Rat aortas from both groups were subjected to elastase perfusion 5 days later. The aortas were then removed for study 7 or 14 days after elastase perfusion.
# Male Sprague-Dawley rats (190 g to 210 g) were obtained from Charles River Laboratories. Subcutaneous neck implantation of a 21-day slow release 0.1 mg 17-β-estradiol pellet (Innovative Research of America) was performed under general inhalational anesthesia. This particular estradiol dose results in serum estradiol levels at 2 to 3 weeks of 44.7±6.1 pg/mL compared with 15.0±2.2 pg/mL in control rats (p<0.05). Three weeks after pellet implantation, the infrarenal aorta was explanted under general anesthesia. The aorta was briefly rinsed free of blood and debris with cold 1×PBS containing antibiotics, cut into 1-mm rings, and incubated for 48 hours in 1 mL of serum-free DMEM containing antibiotics and IL-1β. […]
structure (smiles),measurement,value
C[C@]12CC[C@@H]3c4ccc(O)cc4CC[C@H]3[C@@H]1CC[C@@H]2O [17-β-estradiol],serum estradiol levels,44.7 ± 6.1 pg/mL
